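Method: 48-hour compound exposure of cells in 96-well plates, five concentrations, linear interpolation of endpoints. The concentration for 50% growth inhibition is given as GI50.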 Active and inactive are the calls of the source. No stated cut-off is given here; in the data, active = GI50 up to about 1.1 µM and inactive = higher.
What was measured:
Test in all cases: NCI anticancer screen, dose series, 48 h
HT-29 = system: HT-29
NCI-H226 = system: NCI-H226
Malme-3M = system: Malme-3M
A498 = system: A498
COLO 205 = system: COLO 205
OVCAR-3 = system: OVCAR-3
UACC-257 = system: UACC-257
MDA-MB-231 = system: MDA-MB-231
SN12C = system: SN12C
Hs-578T = system: Hs-578T
CAKI-1 = system: CAKI-1
786-0 = system: 786-0
SK-MEL-5 = system: SK-MEL-5
NCI-H522 = system: NCI-H522
M14 = system: M14
KM12 = system: KM12
MCF7 = system: MCF7
DU-145 = system: DU-145
SF-539 = system: SF-539
SNB-19 = system: SNB-19
HOP-62 = system: HOP-62
NCI/ADR-RES = system: NCI/ADR-RES
SK-OV-3 = system: SK-OV-3
MDA-MB-435 = system: MDA-MB-435
U-251 = system: U-251
SK-MEL-2 = system: SK-MEL-2
HCC 2998 = system: HCC 2998
SW-620 = system: SW-620
MOLT-4 = system: MOLT-4
RXF 393 = system: RXF 393
SF-268 = system: SF-268
OVCAR-8 = system: OVCAR-8
BT-549 = system: BT-549
SK-MEL-28 = system: SK-MEL-28
NCI-H460 = system: NCI-H460
HCT-15 = system: HCT-15
OVCAR-4 = system: OVCAR-4
IGROV-1 = system: IGROV-1
UACC-62 = system: UACC-62
TK-10 = system: TK-10
CCRF-CEM = system: CCRF-CEM
SNB-75 = system: SNB-75
EKVX = system: EKVX
K562 = system: K562
OVCAR-5 = system: OVCAR-5
SF-295 = system: SF-295
A549 = system: A549
LOX IMVI = system: LOX IMVI
MDA-N = system: MDA-N
NCI-H23 = system: NCI-H23
ACHN = system: ACHN
PC-3 = system: PC-3
T47D = system: T47D
HCT-116 = system: HCT-116
HOP-92 = system: HOP-92
UO-31 = system: UO-31
HL-60 = system: HL-60
SR = system: SR
RPMI-8226 = system: RPMI-8226

Measured: GI50

Cc1ccc(/C=C2\CCCC(CN(C)C)C2=O)cc1 (stereo not drawn)
inactive: HT-29 1.69 µM | NCI-H226 2.56 µM | Malme-3M 1.91 µM | A498 14.3 µM | COLO 205 1.73 µM | OVCAR-3 1.76 µM | UACC-257 1.88 µM | MDA-MB-231 1.66 µM | SN12C 1.91 µM | Hs-578T 3.21 µM | CAKI-1 1.55 µM | 786-0 1.63 µM | SK-MEL-5 3.51 µM | M14 1.81 µM | KM12 1.55 µM | DU-145 10.2 µM | SF-539 2.84 µM | SNB-19 16.4 µM | HOP-62 20.4 µM | NCI/ADR-RES 3.32 µM | SK-OV-3 13.6 µM | MDA-MB-435 1.85 µM | U-251 13.5 µM | SK-MEL-2 4.76 µM | HCC 2998 14.2 µM | SW-620 1.53 µM | MOLT-4 2.28 µM | RXF 393 1.79 µM | SF-268 2.06 µM | OVCAR-8 3.04 µM | BT-549 2.49 µM | SK-MEL-28 1.95 µM | NCI-H460 3.48 µM | OVCAR-4 2.02 µM | IGROV-1 1.96 µM | UACC-62 2.03 µM | TK-10 2.77 µM | CCRF-CEM 1.26 µM | SNB-75 8.13 µM | EKVX 17.5 µM | K562 1.66 µM | OVCAR-5 15.8 µM | SF-295 17.4 µM | A549 15.6 µM | LOX IMVI 1.77 µM | MDA-N 1.97 µM | NCI-H23 2.24 µM | ACHN 2.24 µM | PC-3 3.33 µM | T47D 1.75 µM | HCT-116 1.69 µM | HOP-92 1.88 µM | UO-31 1.69 µM
1.97 µM: HCT-15
active: NCI-H522 0.0951 µM | MCF7 0.525 µM | HL-60 0.841 µM

O=C(Cc1ccccc1)N/N=C/c1ccccc1O
4.25 µM: HCT-15
inactive: HT-29 4.84 µM | NCI-H226 14.1 µM | Malme-3M 12.6 µM | SR 5.52 µM | RPMI-8226 15.9 µM | COLO 205 4.09 µM | OVCAR-3 3.36 µM | UACC-257 9.57 µM | MDA-MB-231 > 100 µM | SN12C 17.2 µM | Hs-578T 36.1 µM | CAKI-1 5.92 µM | 786-0 6.14 µM | SK-MEL-5 12 µM | NCI-H522 13.2 µM | M14 10.5 µM | KM12 32.7 µM | MCF7 3.94 µM | DU-145 23.3 µM | SF-539 24.8 µM | SNB-19 33.1 µM | NCI/ADR-RES 3.98 µM | SK-OV-3 15.9 µM | MDA-MB-435 28.6 µM | U-251 19.5 µM | SK-MEL-2 > 100 µM | HCC 2998 11.2 µM | SW-620 19.3 µM | MOLT-4 4.55 µM | SF-268 8.57 µM | OVCAR-8 8.93 µM | BT-549 27.9 µM | SK-MEL-28 40.4 µM | NCI-H460 5.6 µM | OVCAR-4 15.7 µM | IGROV-1 7.85 µM | UACC-62 8.95 µM | TK-10 22.4 µM | CCRF-CEM 4.94 µM | SNB-75 12.5 µM | EKVX 5.28 µM | K562 13.9 µM | OVCAR-5 20.6 µM | SF-295 10.3 µM | A549 26.1 µM | LOX IMVI 9.42 µM | MDA-N 21.8 µM | NCI-H23 17.8 µM | ACHN 5.15 µM | PC-3 82.6 µM | T47D 4.29 µM | HCT-116 7.55 µM | HOP-92 9.14 µM | UO-31 6.52 µM | HL-60 6.3 µM

— ChEMBL document CHEMBL1201862, “PubChem BioAssay data set” (2004)
